# Experimental data as given in US5498427A, “Solutions for the perfusion, preservation and reperfusion of organs” (Pasteur Merieux Serums et Vaccines, priority 1990, dated 1996).
# Tests used:
# [1] = tested on: isolated hearts from Sprague-Dawley rats; assay: Test of solutions containing NAC on isolated rat heart preparations (Langendorff, arrest, 5 h cold storage, 1 h ischemia, 1 h reperfusion); conditions: for Left ventricular pressure developed, Reperfusion: after ischemia and reperfusion; for Left ventricular pressure developed, Reperfusion / Coronary flow rate, Reperfusion / Coronary flow rate, Normal / Left ventricular pressure developed, Normal: N = 10; for Coronary flow rate, Normal / Left ventricular pressure developed, Normal: pre-ischaemic reference value
# Procedure: Fifty isovolumic preparations of isolated hearts from Sprague-Dawley rats weighing 300 grams were used, the hearts being connected rapidly to a non-recirculating Langendorff perfusion column to establish a retrograde perfusion using an oxygenated (95% O2, 5% CO2) Krebs-Henseleit buffer, to establish a retrograde perfusion at a pressure of 100 cm of water. The left ventricular pressure, its derivative and the end-diastolicpressure were recorded continuously. The coronary flow rate was measured by noting the venous coronary flow rate. Left ventricular stimulation was maintained at a frequency of 320/min.
# After a twenty-minute monitoring period, thirty hearts were arrested by perfusion using the preservation and perfusion solution at 4° C., and then rapidly placed in glass containers filled with the same solution and surrounded by ice. The hearts were maintained therein for five hours, with a mean myocardial temperature of 2° C. at the end of storage. The hearts were then reconnected to the perfusion circuit and subjected to an additional ischemia for one hour at between 15° and 18° C. The hearts were divided into three groups, including a control group which received a first perfusion of a solution which was identical but devoid of NAC on establishment of the post-storage ischemia and an additional perfusion of 25 ml of this solution immediately before unclamping the aorta, the perfusions being performed at 4° C. and 28° C., respectively. […] In the third group, a solution containing NAC at 28° C. was distributed in a single dose at the end of the ischemia. In this latter group, the NAC concentration was adjusted to 0.072 M so that all the hearts treated received the same amount of this substance, that is to say approximately 1.80 millimoles. The bottles containing the solutions as well as the connecting tubes were protected from light in order to avoid oxidation. In all three groups, the perfusions after storage were delivered at a pressure of 30 cm of water. After a period of ischemia of six hours, the hearts were reperfused for one hour at 37° C.
# For all three groups, the stimulation was stopped and the left intraventricular balloon deflated during the period of ischemia so as to simulate clinical conditions. After reperfusion, stimulation was reestablished. Isovolumetric measurements of the coronary flow rate, the left ventricular pressure, its first derivative and the telediastolic pressure were performed three times during the monotoring period and then at 5, 30, 45 and 60 minutes during the reperfusion.
# [2] = hypothermic storage conditions in usual bags, periods up to 3 hours
# Description: In one embodiment the solution is stored, as a whole, in the container.
# [3] = Group II, multidose solution enriched with NAC, versus Groups I and III
# [4] = Second group, (0.04 M) NAC multidose
# [5] = Third group, (0.07 M) NAC single dose at end of ischemia
Compound,"Left ventricular diastolic pressure: postischemic contracture ([1]; Group II, multidose solution enriched with NAC)","Left ventricular pressure developed throughout the reperfusion period [1, 3]","Postischemic derivative dP/dt [1, 3]","Left ventricular diastolic pressure: compliance ([1]; Group III, reperfusion supplemented with NAC only at end of ischemia)","Left ventricular pressure loss after ischemia and reperfusion ([1]; Group III, reperfusion supplemented with NAC only at end of ischemia, versus Group II)","Left ventricular pressure developed, Reperfusion [1, 4]","Coronary flow rate, Reperfusion ([1]; Second group, (0.04 M) NAC multidose, after sixty minutes of reperfusion)","Coronary flow rate, Normal [1, 4]","Left ventricular pressure developed, Normal [1, 4]","Left ventricular pressure developed, Reperfusion [1, 5]","Coronary flow rate, Reperfusion ([1]; Third group, (0.07 M) NAC single dose at end of ischemia, after sixty minutes of reperfusion)","Coronary flow rate, Normal [1, 5]","Left ventricular pressure developed, Normal [1, 5]","Recovery of coronary flow rate ([1]; groups treated with NAC versus control, after sixty minutes of reperfusion)",Rate of glutathione oxydation on storage [2]
"CC(=O)N[C@@H](CS)C(=O)O [NAC, N-acetylcysteine]",significantly decreased,significantly greater pressure was developed,largest values,significant loss of compliance,significantly greater pressure losses,101.5 ± 3.4 mm Hg,12.1 ± 0.5 mL/min,14.8 ± 0.6 mL/min,126.4 ± 2.8 mm Hg,69.8 ± 3.6 mm Hg,13.4 ± 0.4 mL/min,16.0 ± 0.5 mL/min,129.7 ± 2.0 mm Hg,best recovery of coronary flow rate,
N[C@@H](CCC(=O)N[C@@H](CS)C(=O)NCC(=O)O)C(=O)O [glutathione],,,,,,,,,,,,,,,only minimal rate of glutathione oxydation
